In patent US20170190671A1, “BIS(ARYL)CATECHOL DERIVATIVES AS HERBICIDES” (E I DU PONT DE NEMOURS AND COMPANY, priority 2014, published 2017):

Assays:
Assay in all cases: Test C preemergence
Format in all cases: in vivo
[1] = tested on: Italian ryegrass (Lolium multiflorum); details: Lolium multiflorum, pre-emergence, 336 h, scale 0 to 100, read-out: Plant response rating, Ryegrass, Italian
Summary of the method: (§1)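 0-100 visual injury score (100 = complete control), assessed at 13-15 d after treatment against controls; surfactant-containing solvent formulation applied preemergence to seeded loam-sand soil or sprayed onto 1- to 4-leaf greenhouse plants.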

[2] = tested on: barnyardgrass (Echinochloa crus-galli); details: Echinochloa crus-galli, pre-emergence, read-out: Plant response rating, Barnyardgrass
Summary of the method: as §1

[3] = tested on: blackgrass (Alopecurus myosuroides); details: Alopecurus myosuroides, pre-emergence, 336 h, scale 0 to 100, read-out: Plant response rating, Blackgrass
Summary of the method: as §1

corn (Zea mays) = details: Zea mays, pre-emergence, 336 h, scale 0 to 100
Summary of the method: as §1

[4] = tested on: giant foxtail (Setaria faberii); details: Setaria faberi, pre-emergence, 336 h, scale 0 to 100, read-out: Plant response rating, Foxtail, Giant
Summary of the method: as §1

[5] = tested on: johnsongrass (Sorghum halepense); details: Sorghum halepense, pre-emergence, 336 h, scale 0 to 100, read-out: Plant response rating, Johnsongrass
Summary of the method: as §1

[6] = tested on: lambsquarters (Chenopodium album); details: Chenopodium album, pre-emergence, 336 h, scale 0 to 100, read-out: Plant response rating, Lambsquarters
Summary of the method: as §1

[7] = tested on: large (Lg) crabgrass (Digitaria sanguinalis); details: Digitaria sanguinalis, pre-emergence, 336 h, scale 0 to 100, read-out: Plant response rating, Crabgrass, Large
Summary of the method: as §1

[8] = tested on: pigweed (Amaranthus retroflexus); details: Amaranthus retroflexus, pre-emergence, 336 h, scale 0 to 100, read-out: Plant response rating, Pigweed
Summary of the method: as §1

[9] = tested on: ragweed (common ragweed, Ambrosia elatior); details: Ambrosia artemisiifolia, pre-emergence, 336 h, scale 0 to 100, read-out: Plant response rating, Ragweed
Summary of the method: as §1

soybean (Glycine max) = details: Glycine max, pre-emergence, scale 0 to 100, read-out: Plant response rating, Soybean
Summary of the method: as §1

[10] = tested on: velvetleaf (Abutilon theophrasti); details: Abutilon theophrasti, pre-emergence, scale 0 to 100, read-out: Plant response rating, Velvetleaf
Summary of the method: as §1

[11] = tested on: winter wheat (Triticum aestivum); details: Triticum aestivum, pre-emergence, 336 h, scale 0 to 100, read-out: Plant response rating, Wheat
Summary of the method: as §1

[12] = tested on: yellow nutsedge (Cyperus esculentus); details: Cyperus, pre-emergence, 336 h, scale 0 to 100, read-out: Plant response rating, Nutsedge, Yellow
Summary of the method: as §1

For FC(F)c1cccc(Oc2ncc(Cl)cn2)c1Oc1ncc(Cl)cn1 [Compound 46, 2,2′-[[3-(difluoromethyl)-1,2-phenylene]bis(oxy)]bis[5-chloropyrimidine]], the pest or weed control at 31 g/ha ([1]; 31 g ai/ha, preemergence) was 25%, the pest or weed control at 62 g/ha ([1]; 62 g ai/ha, preemergence) was 95% and the pest or weed control at 125 g/ha ([1]; 125 g ai/ha, preemergence) was 100%. The pest or weed control at 16 g/ha ([1]; Preemergence, 16 g ai/ha) was 0%, the pest or weed control at 31 g/ha ([2]; 31 g ai/ha, preemergence, scale 0 to 100) was 70% and the pest or weed control at 62 g/ha ([2]; 62 g ai/ha, preemergence, scale 0 to 100) was 100%. For the same molecule, the pest or weed control at 125 g/ha ([2]; 125 g ai/ha, preemergence, scale 0 to 100) was 100%, the pest or weed control at 16 g/ha ([2]; Preemergence, 16 g ai/ha, scale 0 to 100 (0 no effect, 100 complete control)) was 15% and the pest or weed control at 31 g/ha ([3]; 31 g ai/ha, preemergence) was 70%. The pest or weed control at 62 g/ha ([3]; 62 g ai/ha, preemergence) was 95%, the pest or weed control at 125 g/ha ([3]; 125 g ai/ha, preemergence) was 95% and the pest or weed control at 16 g/ha ([3]; Preemergence, 16 g ai/ha) was 0%. It also gave a Corn plant response rating (crop injury, 0 = no effect, 100 = complete kill) at 31 g/ha (corn (Zea mays); 31 g ai/ha, preemergence) of 25%, a Corn plant response rating (crop injury, 0 = no effect, 100 = complete kill) at 62 g/ha (corn (Zea mays); 62 g ai/ha, preemergence) of 25% and a Corn plant response rating (crop injury, 0 = no effect, 100 = complete kill) at 125 g/ha (corn (Zea mays); 125 g ai/ha, preemergence) of 90%. It also gave a Corn plant response rating (crop injury, 0 = no effect, 100 = complete kill) at 16 g/ha (corn (Zea mays); Preemergence, 16 g ai/ha) of 10%, a pest or weed control at 31 g/ha ([4]; 31 g ai/ha, preemergence) of 100% and a pest or weed control at 62 g/ha ([4]; 62 g ai/ha, preemergence) of 100%. For the same molecule, the pest or weed control at 125 g/ha ([4]; 125 g ai/ha, preemergence) was 100%, the pest or weed control at 16 g/ha ([4]; Preemergence, 16 g ai/ha) was 75% and the pest or weed control at 31 g/ha ([5]; 31 g ai/ha, preemergence) was 40%. It also gave a pest or weed control at 62 g/ha ([5]; 62 g ai/ha, preemergence) of 75%, a pest or weed control at 125 g/ha ([5]; 125 g ai/ha, preemergence) of 100% and a pest or weed control at 16 g/ha ([5]; Preemergence, 16 g ai/ha) of 5%. It also gave a pest or weed control at 31 g/ha ([6]; 31 g ai/ha, preemergence) of 100%, a pest or weed control at 62 g/ha ([6]; 62 g ai/ha, preemergence) of 100% and a pest or weed control at 125 g/ha ([6]; 125 g ai/ha, preemergence) of 100%. It also gave a pest or weed control at 16 g/ha ([6]; Preemergence, 16 g ai/ha) of 75%, a pest or weed control at 31 g/ha ([7]; 31 g ai/ha, preemergence) of 100% and a pest or weed control at 62 g/ha ([7]; 62 g ai/ha, preemergence) of 100%. It also gave a pest or weed control at 125 g/ha ([7]; 125 g ai/ha, preemergence) of 100%, a pest or weed control at 16 g/ha ([7]; Preemergence, 16 g ai/ha) of 100% and a pest or weed control at 31 g/ha ([8]; 31 g ai/ha, preemergence) of 100%. For the same molecule, the pest or weed control at 62 g/ha ([8]; 62 g ai/ha, preemergence) was 100%, the pest or weed control at 125 g/ha ([8]; 125 g ai/ha, preemergence) was 100% and the pest or weed control at 16 g/ha ([8]; Preemergence, 16 g ai/ha) was 20%. It also gave a pest or weed control at 31 g/ha ([9]; 31 g ai/ha, preemergence) of 25%, a pest or weed control at 62 g/ha ([9]; 62 g ai/ha, preemergence) of 35% and a pest or weed control at 125 g/ha ([9]; 125 g ai/ha, preemergence) of 100%. The pest or weed control at 16 g/ha ([9]; Preemergence, 16 g ai/ha) was 0%, the plant injury at 31 g/ha (soybean (Glycine max); 31 g ai/ha, preemergence) was 40% and the plant injury at 62 g/ha (soybean (Glycine max); 62 g ai/ha, preemergence) was 65%. It also gave a plant injury at 125 g/ha (soybean (Glycine max); 125 g ai/ha, preemergence) of 95%, a plant injury at 16 g/ha (soybean (Glycine max); Preemergence, 16 g ai/ha) of 10% and a pest or weed control at 31 g/ha ([10]; 31 g ai/ha, preemergence) of 100%. The pest or weed control at 62 g/ha ([10]; 62 g ai/ha, preemergence) was 95%, the pest or weed control at 125 g/ha ([10]; 125 g ai/ha, preemergence) was 100% and the pest or weed control at 16 g/ha ([10]; Preemergence, 16 g ai/ha) was 25%. The plant injury at 31 g/ha ([11]; 31 g ai/ha, preemergence) was 5%, the plant injury at 62 g/ha ([11]; 62 g ai/ha, preemergence) was 5% and the plant injury at 125 g/ha ([11]; 125 g ai/ha, preemergence) was 50%. For the same molecule, the plant injury at 16 g/ha ([11]; Preemergence, 16 g ai/ha) was 0%, the pest or weed control at 31 g/ha ([12]; 31 g ai/ha, preemergence) was 35% and the pest or weed control at 62 g/ha ([12]; 62 g ai/ha, preemergence) was 55%. For the same molecule, the pest or weed control at 125 g/ha ([12]; 125 g ai/ha, preemergence) was 80% and the pest or weed control at 16 g/ha ([12]; Preemergence, 16 g ai/ha) was 0%.
